Results: article PMC4019636, “Rational Design of Berberine-Based FtsZ Inhibitors with Broad-Spectrum Antibacterial Activity” (PLoS ONE, 2014)
Converted amounts (≈) assume the structure as drawn. Read-outs that look alike come from different tables or passages of the source.

Assays:
[1] = test system: E. faecium ATCC 49624; assay: Antimicrobial susceptibility assay (broth microdilution MIC); type: cell-based; conditions: Enterococcus faecium
Source text: (§1) The bacterial strains S. aureus ATCC 29213, S. aureus ATCC 29247, S. aureus ATCC BAA-41, E. faecium ATCC 49624, E. faecium ATCC 700221, E. faecalis ATCC 29212, S. epidermidis ATCC 12228, E. coli ATCC 25922, and K. pneumoniae ATCC BAA-1144 used in the antimicrobial susceptibility assays were purchased from American Type Culture Collection (ATCC, USA). B. subtilis strain 168 was already available in our in-house collection. E. coli JM109 WM647 was kindly provided by Dr. W. Margolin (University of Texas-Houston Medical School). FM 4–64 was purchased from Invitrogen (Eugene, Oregon). All other chemicals and reagents were purchased from Sigma-Aldrich. Stock solutions were prepared in DMSO. The final percentage of DMSO in the assays was 1% (v/v) for all experiments.
(§2) Antimicrobial susceptibility tests were conducted in 96-well microplates using the broth microdilution procedure described in the Clinical and Laboratory Standards Institute (CLSI) guidelines. […] After incubation for 18 h at 37°C, the absorbance at 600 nm (A600) was recorded using a microplate reader (Bio-Rad laboratory Ltd., UK) and the percentage of bacterial cell inhibition with respect to vehicles (1% DMSO) was calculated. The MIC was defined as the lowest compound concentration at which the growth of bacteria was inhibited by ≥90%. Three independent assays were performed for each test.

[2] = test system: E. faecium ATCC 700221; assay: as above; type: cell-based; conditions: Enterococcus faecium
Source text: as §1, §2

[3] = test system: S. aureus ATCC 29247; assay: as above; type: cell-based; conditions: Staphylococcus aureus
Source text: as §1
(§3) Antimicrobial susceptibility tests were conducted in 96-well microplates using the broth microdilution procedure described in the Clinical and Laboratory Standards Institute (CLSI) guidelines. Cation-adjusted Mueller Hinton broth for S. aureus strain ATCC 29213, methicillin-resistant S. aureus strain ATCC BAA-41 and ampicillin-resistant S. aureus strain ATCC 29247, or brain heart infusion broth for antibiotic-susceptible E. faecium strain ATCC 49624 and vancomycin-resistant E. faecium strain ATCC 700221, or Mueller Hinton broth for antibiotic-susceptible strains B. subtilis strain 168, E. faecalis strain ATCC 29212 and E. coli strain ATCC 25922 were used in the assays. After incubation for 18 h at 37°C, the absorbance at 600 nm (A600) was recorded using a microplate reader (Bio-Rad laboratory Ltd., UK) and the percentage of bacterial cell inhibition with respect to vehicles (1% DMSO) was calculated. The MIC was defined as the lowest compound concentration at which the growth of bacteria was inhibited by ≥90%. Three independent assays were performed for each test.

[4] = test system: K. pneumoniae ATCC BAA-1144; assay: as above; type: cell-based; conditions: Klebsiella pneumoniae
Source text: as §1, §3

[5] = test system: E. faecalis ATCC 29212; assay: as above; type: cell-based; conditions: Enterococcus faecalis
Source text: as §1, §3

[6] = test system: S. epidermidis ATCC 12228; assay: as above; type: cell-based; conditions: Staphylococcus epidermidis
Source text: as §1, §3

[7] = test system: B. subtilis 168; assay: as above; type: cell-based
Source text: as §1, §3

[8] = test system: E. coli ATCC 25922; assay: as above; type: cell-based; conditions: Escherichia coli
Source text: as §1, §3

[9] = test system: S. aureus ATCC BAA-41; assay: as above; type: cell-based; conditions: Staphylococcus aureus
Source text: as §1, §3

[10] = test system: S. aureus ATCC 29213; assay: as above; type: cell-based; conditions: Staphylococcus aureus
Source text: as §1, §3

[11] = target: T1, S. aureus FtsZ (Staphylococcus aureus, UniProt P0A031); assay: Light scattering assay of FtsZ polymerization; type: biochemical; conditions: 1 mM compound; negative control
T1 construct: made in house; host or cells: E. coli BL21(DE3)
T1 sequence (P0A031 1-390): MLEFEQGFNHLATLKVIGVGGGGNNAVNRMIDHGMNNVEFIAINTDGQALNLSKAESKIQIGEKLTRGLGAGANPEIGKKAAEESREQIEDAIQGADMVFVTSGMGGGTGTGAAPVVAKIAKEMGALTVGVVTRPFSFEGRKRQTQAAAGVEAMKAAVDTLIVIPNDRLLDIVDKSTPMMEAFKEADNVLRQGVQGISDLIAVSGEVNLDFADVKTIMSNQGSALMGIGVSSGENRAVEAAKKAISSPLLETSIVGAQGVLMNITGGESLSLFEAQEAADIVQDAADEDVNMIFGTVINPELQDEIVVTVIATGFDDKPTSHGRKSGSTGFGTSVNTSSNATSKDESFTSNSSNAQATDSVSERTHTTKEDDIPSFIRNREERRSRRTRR
Description: E. coli BL21(DE3) cells were transformed with the pRSET-A-S vector carrying S. aureus FtsZ with a 6-histidine tag attached at its N-terminus under the control of a T7 promoter. […] When the OD600 reached 0.8, protein expression was induced with 0.4 mM isopropyl-β-D-thiogalactopyranoside (IPTG) for 4 h. Cells were harvested by centrifugation at 9000 rpm for 20 min at 4°C. The cell pellet was resuspended in 20 mL of solubilization buffer (50 mM Tris-HCl, 150 mM NaCl, 1 mM PMSF and 1 mM EDTA, pH 7.4) and then lysed with 1 mg/mL of lysozyme. The mixture was incubated for 1 h on ice. The cells were disrupted by sonication and the crude lysate obtained was centrifuged at 13,000 rpm for 1 h at 4°C. The supernatant containing 6-histidine tagged S. aureus FtsZ was collected and loaded onto a nickel charged HiTrap chelating column pre-equilibrated with starting buffer (20 mM sodium phosphate buffer, 0.5 M NaCl, pH 7.4). The column was then washed with 8 column volumes of the starting buffer to remove the unbound proteins, and the histidine-tagged enzyme was eluted by a linear gradient of 0−0.2 M imidazole. Fractions containing S. aureus FtsZ were pooled, buffer-exchanged with 20 mM NH4HCO3 (pH 8.0) at 4°C, lyophilized, and stored at −20°C. A stock solution of S. aureus FtsZ for the subsequent bioassay was prepared from the lyophilized powder.
The light scattering assay was performed using a protocol adapted from the literature. The polymerization and depolymerization of recombinant S. aureus FtsZ was measured using 90° light scattering in a thermostatically (37°C) controlled fluorescence spectrometer (Perkin Elmer, USA). Both excitation and emission wavelengths were set to 600 nm with a slit width of 2.5 nm. S. aureus FtsZ (6 µM) in 50 mM of MOPS buffer (pH 6.5) was incubated with vehicle (1% DMSO) or different concentrations of the test compound for 10 min at 25°C. 50 mM KCl and 10 mM MgCl2 were then added to establish a baseline. After 8 min, a final concentration of 1 mM GTP was added at the last fraction and the increase in light scattering was measured for an additional 2000s. The rate and extent of polymerization were measured. Appropriate blanks were subtracted from all experimental data. Moreover, in order to rule out unselective inhibition by formation of aggregates, control experiments with 0.01% (v/v) Triton X-100 from a freshly prepared 1% (v/v) stock solution were performed for berberine and compound 2 [40], [41]. Reported results are the average of three independent experiments.

[12] = ATCC29247, S. aureus ATCC 29247 (ampicillin-resistant), 18 h at 37°C, growth inhibited by ≥90%, read-out: MIC
[13] = ATCCBAA1144, K. pneumoniae ATCC BAA-1144 (Gram-negative, expressing AmpC β-lactamase), 18 h at 37°C, growth inhibited by ≥90%, read-out: MIC
[14] = ATCC29212, E. faecalis ATCC 29212, Mueller Hinton broth, 18 h at 37°C, growth inhibited by ≥90%, read-out: MIC
[15] = ATCC12228, S. epidermidis ATCC 12228, 18 h at 37°C, growth inhibited by ≥90%, read-out: MIC
[16] = Bacillus subtilis, B. subtilis 168, Mueller Hinton broth, 18 h at 37°C, growth inhibited by ≥90%, read-out: MIC
[17] = ATCC25922, E. coli ATCC 25922, Mueller Hinton broth, 18 h at 37°C, growth inhibited by ≥90%, read-out: MIC
[18] = ATCCBAA41, S. aureus ATCC BAA-41 (methicillin-resistant), 18 h at 37°C, growth inhibited by ≥90%, read-out: MIC
[19] = ATCC29213, S. aureus ATCC 29213, cation-adjusted Mueller Hinton broth, 18 h at 37°C, growth inhibited by ≥90%, read-out: MIC

| Compound | MIC [3, 12] | MIC [4, 13] | MIC [5, 14] | MIC [6, 15] | MIC [7, 16] | MIC [8, 17] | MIC [9, 18] | MIC [10, 19] | other results |
| --- | --- | --- | --- | --- | --- | --- | --- | --- | --- |
| CN[C@H](CC(C)C)C(=O)N[C@H]1C(=O)N[C@@H](CC(N)=O)C(=O)N[C@H]2C(=O)N[C@H]3C(=O)N[C@H](C(=O)N[C@H](C(=O)O)c4cc(O)cc(O)c4-c4cc3ccc4O)[C@H](O)c3ccc(c(Cl)c3)Oc3cc2cc(c3O[C@@H]2O[C@H](CO)[C@@H](O)[C@H](O)[C@H]2O[C@H]2C[C@](C)(N)[C@H](O)[C@H](C)O2)Oc2ccc(cc2Cl)[C@H]1O [Vancomycin, vancomycin, reference compound] | – | – | – | – | – | – | – | – | MIC ([1]; ATCC49624, 18 h): 1 µg/mL (≈ 0.69 µM); MIC ([2]; ATCC700221, 18 h): > 96 µg/mL; MIC ([3]; ATCC29247, 18 h): 1 µg/mL (≈ 0.69 µM); MIC ([4]; ATCCBAA1144, 18 h): 6 µg/mL (≈ 4.14 µM); MIC ([5]; ATCC29212, 18 h): 1 µg/mL (≈ 0.69 µM); MIC ([6]; ATCC12228, 18 h): 1 µg/mL (≈ 0.69 µM); MIC ([7]; Bacillus subtilis, 168, 18 h): 1 µg/mL (≈ 0.69 µM); MIC ([8]; ATCC25922, 18 h): 2 µg/mL (≈ 1.38 µM); MIC ([9]; ATCCBAA41, 18 h): 2 µg/mL (≈ 1.38 µM); MIC ([10]; ATCC29213, 18 h): 1 µg/mL (≈ 0.69 µM) |
| COc1ccc2cc3[n+](cc2c1OCCCBr)CCc1cc2c(cc1-3)OCO2 [Compound 7] | 112 µg/mL | > 384 µg/mL | > 196 µg/mL | 112 µg/mL | 112 µg/mL | 384 µg/mL | 196 µg/mL | 112 µg/mL | MIC ([1]; ATCC49624, E. faecium ATCC 49624, brain heart infusion broth, 18 h at 37°C, growth inhibited by ≥90%, read-out: MIC): > 196 µg/mL; MIC ([2]; ATCC700221, E. faecium ATCC 700221 (vancomycin-resistant), brain heart infusion broth, 18 h at 37°C, growth inhibited by ≥90%, read-out: MIC): > 196 µg/mL |
| CC1(C)S[C@@H]2[C@H](NC(=O)[C@H](N)c3ccccc3)C(=O)N2[C@H]1C(=O)O [Ampicillin, reference compound] | 48 µg/mL (≈ 137 µM) | > 96 µg/mL | 6 µg/mL (≈ 17.2 µM) | 3 µg/mL (≈ 8.59 µM) | 0.1 µg/mL (≈ 0.286 µM) | 6 µg/mL (≈ 17.2 µM) | > 96 µg/mL | 1.5 µg/mL (≈ 4.29 µM) | effect on the polymerization of S. aureus FtsZ [11]: no effect |
